The values that follow come from PMC9860641, “Synthesis, In Vitro α-Glucosidase Inhibitory Activity and Molecular Docking Study of New Benzotriazole-Based Bis-Schiff Base Derivatives” (Pharmaceuticals, 2022).

Structures are written as SMILES.

For one data set, the target named is α-glucosidase enzyme (Saccharomyces cerevisiae, UniProt P53341). Type of data set: biochemical. On the procedure: To find out the α-glucosidase inhibition, kinetic studies were carried out using different concentrations of the inhibitors (0.0624, 0.3, 0.125, 0.4 mM) and different concentrations of substrate inhibitor (p-nitrophenol R-D maltoside NMP). Samples of 0.1, 0.2, 0.4, 0.8, and 1.0 mM (0.2 mg/mL) concentration were prepared in de-ionized water with the enzyme. PIPES buffer was used to adjust the pH of the solution. This solution was incubated for 30 min at 25 °C and the absorbance was recorded on an ELISA reader in 96-well plates. Kinetic parameters like Vmax, AICs, Km, and R2 were calculated using sigma plot enzyme kinetic software.
Chain of α-glucosidase enzyme (P53341 whole entry): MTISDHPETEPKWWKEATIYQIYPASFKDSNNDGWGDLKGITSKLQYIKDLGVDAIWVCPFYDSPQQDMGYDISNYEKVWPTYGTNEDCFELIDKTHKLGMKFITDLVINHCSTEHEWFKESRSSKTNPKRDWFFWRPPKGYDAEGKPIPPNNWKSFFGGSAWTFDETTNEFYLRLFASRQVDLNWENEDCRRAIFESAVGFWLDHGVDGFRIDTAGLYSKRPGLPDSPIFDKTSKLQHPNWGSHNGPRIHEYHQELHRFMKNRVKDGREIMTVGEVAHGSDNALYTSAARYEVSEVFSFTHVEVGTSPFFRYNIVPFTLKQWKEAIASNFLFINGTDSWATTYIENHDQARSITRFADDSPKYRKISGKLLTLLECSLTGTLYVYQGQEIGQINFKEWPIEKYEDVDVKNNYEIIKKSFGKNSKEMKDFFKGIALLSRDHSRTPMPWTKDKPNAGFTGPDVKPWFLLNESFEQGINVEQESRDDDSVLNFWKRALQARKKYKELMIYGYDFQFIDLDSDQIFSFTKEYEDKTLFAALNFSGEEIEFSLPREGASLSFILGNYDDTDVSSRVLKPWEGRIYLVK

As a reminder, the melting point is the temperature, or range, at which the solid turns liquid. The molecule `O=[N+]([O-])c1ccc(/C(Cn2nnc3ccccc32)=N\N=C\c2ccc(Cl)c(Cl)c2)cc1` [Compound 19, 1-((E)-2-(((E)-3,4-dichlorobenzylidene)hydrazono)-2-(4-nitrophenyl)ethyl)-1H-benzo[d] [1,2, 3]triazole] yielded a melting point of 194 to 195 °C.
For the molecule `Oc1c(Cl)cc(Cl)cc1/C=N/N=C(/Cn1nnc2ccccc21)c1ccc(Cl)cc1Cl` [Compound 13, 2-((E)-(((E)-2-(1H-benzo[d][1,2, 3]triazol-1-yl)-1-(2,4-dichlorophenyl)ethylidene) hydrazono)methyl)-4,6-dichlorophenol], the melting point lay in the range of 199 to 200 °C. For the same molecule, on α-glucosidase enzyme (comparator compound 1), the “fold enhancement of α-glucosidase activity relative to compound (1)” value is “three-fold”.
In the case of `O=[N+]([O-])c1ccc(/C(Cn2nnc3ccccc32)=N\N=C\c2ccc(O)cc2)cc1` [Compound 20, 4-((E)-(((E)-2-(1H-benzo[d][1,2, 3]triazol-1-yl)-1-(4-nitrophenyl)ethylidene) hydrazono)methyl)phenol], the melting point lay in the range of 190 to 191 °C.
On to `O=Cc1ccc(/C=N/N=C(/Cn2nnc3ccccc32)c2ccc(Br)cc2)cc1` [Compound 8, 4-((E)-(((E)-2-(1H-benzo[d][1,2, 3]triazol-1-yl)-1-(4-bromophenyl)ethylidene) hydrazono)methyl)benzaldehyde], for which the melting point was 193 to 194 °C. Further, the “potency against α-glucosidase compared with standard acarbose (in words)” value at α-glucosidase enzyme is given as “less potent than standard acarbose”.
With `O=[N+]([O-])c1ccc(/C=N/N=C(/Cn2nnc3ccccc32)c2ccc(Br)cc2)cc1` [Compound 6, 1-((E)-2-(4-bromophenyl)-2-(((E)-4-nitrobenzylidene)hydrazono)ethyl)-1H-benzo[d] [1,2, 3]triazole], the melting point was 196 to 197 °C. Besides, at α-glucosidase enzyme (comparator compound 3), the “potency relative to compound (3)” value is listed as “half”.
`Brc1ccc(/C(Cn2nnc3ccccc32)=N\N=C\c2c3ccccc3cc3ccccc23)cc1` [Compound 4, 1-((E)-2-(((E)-anthracen-9-ylmethylene)hydrazono)-2-(4-bromophenyl)ethyl)-1H-benzo[d] [1,2, 3]triazole] returned a melting point of 201 to 202 °C. Also, the “potency against α-glucosidase compared with standard acarbose (in words)” value at α-glucosidase enzyme is “less potent than standard acarbose”.
`O=[N+]([O-])c1cccc(/C=N/N=C(/Cn2nnc3ccccc32)c2ccc(Br)cc2)c1` [Compound 3, 1-((E)-2-(4-bromophenyl)-2-(((E)-3-nitrobenzylidene)hydrazono)ethyl)-1H-benzo[d] [1,2, 3]triazole] displayed a melting point of 196 to 197 °C.
Same read-out and setting: as for `O=[N+]([O-])c1ccc(/C(Cn2nnc3ccccc32)=N\N=C\c2cccc([N+](=O)[O-])c2)cc1` [Compound 11, 1-((E)-2-(((E)-3-nitrobenzylidene)hydrazono)-2-(4-nitrophenyl)ethyl)-1H-benzo[d] [1,2, 3]triazole], the figure is 191 to 192 °C.
As for `O=[N+]([O-])c1cccc(/C(Cn2nnc3ccccc32)=N\N=C\c2cc(Cl)cc(Cl)c2O)c1` [Compound 9, 2-((E)-(((E)-2-(1H-benzo[d][1,2, 3]triazol-1-yl)-1-(3-nitrophenyl)ethylidene) hydrazono)methyl)-4,6-dichlorophenol], the melting point lay in the range of 197 to 198 °C. The “potency relative to standard acarbose (fold greater)” value at α-glucosidase enzyme (compared to standard acarbose) is “nine-fold”.
`O=[N+]([O-])c1ccc(/C=N/N=C(/Cn2nnc3ccccc32)c2ccc(Cl)cc2Cl)cc1` [Compound 15, 1-((E)-2-(2,4-dichlorophenyl)-2-(((E)-4-nitrobenzylidene)hydrazono)ethyl)-1H-benzo[d] [1,2, 3]triazole] returned a melting point of 194 to 195 °C.
For `Oc1c(Cl)cc(Cl)cc1/C=N/N=C(/Cn1nnc2ccccc21)c1ccc(Br)cc1` [Compound 5, 2-((E)-(((E)-2-(1H-benzo[d][1,2, 3]triazol-1-yl)-1-(4-bromophenyl)ethylidene) hydrazono)methyl)-4,6-dichlorophenol], the melting point lay in the range of 196 to 197 °C. The “fold lowering of enzymatic activity relative to scaffold (10)” value at α-glucosidase enzyme (comparator scaffold 10) is given as “four-fold”.
On to `O=[N+]([O-])c1ccc(/C(Cn2nnc3ccccc32)=N\N=C\c2cc(Cl)cc(Cl)c2O)cc1` [Compound 10, 2-((E)-(((E)-2-(1H-benzo[d][1,2, 3]triazol-1-yl)-1-(4-nitrophenyl)ethylidene) hydrazono)methyl)-4,6-dichlorophenol], for which the melting point fell in the range of 197 to 198 °C.
Take `O=[N+]([O-])c1cccc(/C=N/N=C(/Cn2nnc3ccccc32)c2ccc(Cl)cc2Cl)c1` [Compound 14, 1-((E)-2-(2,4-dichlorophenyl)-2-(((E)-3-nitrobenzylidene)hydrazono)ethyl)-1H-benzo[d] [1,2, 3]triazole]: the melting point was 194 to 195 °C.
In turn, `Clc1ccc(/C=N/N=C(/Cn2nnc3ccccc32)c2ccc(Br)cc2)cc1Cl` [Compound 17, 1-((E)-2-(4-bromophenyl)-2-(((E)-3,4-dichlorobenzylidene)hydrazono)ethyl)-1H-benzo[d] [1,2, 3]triazole] had a melting point of 198 to 199 °C. Further, the “potency against α-glucosidase compared with standard acarbose (in words)” value at α-glucosidase enzyme is “less potent than standard acarbose”.
Molecule `O=[N+]([O-])c1ccc(/C=N/N=C(/Cn2nnc3ccccc32)c2ccc([N+](=O)[O-])cc2)cc1` [Compound 12, 1-((E)-2-(((E)-4-nitrobenzylidene)hydrazono)-2-(4-nitrophenyl)ethyl)-1H-benzo[d] [1,2, 3]triazole] showed a melting point of 191 to 192 °C. The “inhibition profile relative to scaffold (11)” value against α-glucosidase enzyme (comparator scaffold 11) is recorded as “half”.
In turn, `Brc1ccc(/C(Cn2nnc3ccccc32)=N\N=C\c2ccc3ccccc3c2)cc1` [Compound 7, 1-((E)-2-(4-bromophenyl)-2-(((E)-naphthalen-2-ylmethylene)hydrazono)ethyl)-1H-benzo[d] [1,2, 3]triazole] registered a melting point of 196 to 197 °C. Moreover, at α-glucosidase enzyme, the “potency against α-glucosidase compared with standard acarbose (in words)” value is listed as “less potent than standard acarbose”.
For the molecule `COc1cccc(/C(Cn2nnc3ccccc32)=N\N=C\c2cc(Cl)cc(Cl)c2O)c1` [Compound 1, 2-((E)-(((E)-2-(1H-benzo[d][1,2, 3]triazol-1-yl)-1-(3-methoxyphenyl)ethylidene) hydrazono)methyl)-4,6-dichlorophenol], the melting point was 195 to 196 °C. Besides, at α-glucosidase enzyme (comparator compound 9), the “fold lower potency than compound (9)” value is reported as “four-fold”.
`COc1cccc(/C(Cn2nnc3ccccc32)=N\N=C\c2cccc([N+](=O)[O-])c2)c1` [Compound 2, 1-((E)-2-(3-methoxyphenyl)-2-(((E)-3-nitrobenzylidene)hydrazono)ethyl)-1H-benzo[d] [1,2, 3]triazole]: the melting point lay within 192 to 193 °C. At α-glucosidase enzyme (comparator compound 12), the “fold lower potency than compound (12)” value is on record as “two-fold”.
